Measured values published in patent US6525001B1, “Substituted pyrimidine and pyridine herbicides” (Mid-American Commercialization Corporation, priority 1997, dated 2003).

Legend:
Format in all cases: in vivo
[1] = tested on: purple nutsedge (Cyperus rotundus); test: Test C; set-up: key: 0 was no effect; 100 was complete control; settings: PREEMERGENCE
[2] = tested on: field bindweed (Convolvulus arvensis); test: Test C; set-up: key: 0 was no effect; 100 was complete control; settings: PREEMERGENCE
[3] = tested on: hairy beggarticks (Bidens pilosa); test: Test C; set-up: key: 0 was no effect; 100 was complete control; settings: PREEMERGENCE
[4] = tested on: johnsongrass (Sorghum halepense); test: Test C; set-up: key: 0 was no effect; 100 was complete control; settings: PREEMERGENCE
[5] = tested on: soybean (Glycine max); test: Test C; set-up: key: 0 was no effect; 100 was complete control; settings: PREEMERGENCE
[6] = tested on: wild oat (Avena fatua); test: Test D; set-up: key: 0 is no effect; 100 is complete control; settings: PREEMERGENCE
[7] = tested on: downy brome (Bromus tectorum); test: Test D; settings: PREEMERGENCE, Rate 250 g/ha
[8] = tested on: common groundsel (Senecio vulgaris); test: Test E pre-/postemergence/post directed; set-up: key: 0 is no effect; 100 is complete control; settings: PREEMERGENCE
From the text: (§1) Seeds, tubers, or plant parts of alexandergrass (Brachiaria plantaginea), annual bluegrass (Poa annua), arrowleaf sida (Sida rhombifolia), barnyardgrass (Echinochloa crus-galli), bermudagrass (Cynodon dactylon), citrus (Citrus sinensis), common chickweed (Stellaria media), common purslane (Portulaca oleracea), common ragweed (Ambrosia elatior), common groundsel (Senecio vulgaris), dallisgrass (Paspalum dilatatum), goosegrass (Eleusine indica), green foxtail (Setaria viridis), guineagrass (Panicum maximum), itchgrass (Rottboellia exaltata), johnson grass (Sorghum halepense), kochia (Kochia scoparia), large crabgrass (Digitaria sanguinalis), leafy spurge (Euphorbia esula), pitted morningglory (Ipomoea lacunosa), purple nutsedge (Cyperus rotundus), quackgrass (Agropyron repens), Russian thistle (Salsola kali), sandbur (Cenchrus echinatus), sourgrass (Trichachne insularis), Spanishneedles (Bidens bipinnata), sugarcane (Saccharum officinarum), surinam grass (Brachiaria decumbens) and tall mallow (Malva sylvestris) were planted into greenhouse pots of flats containing greenhouse planting medium. Plant species were grown grown in separate pots or individual compartments. Preemergence applications were made within one day of planting the seed or plant part. Postemergence applications were applied when the plants were in the two to four leaf stage (three to twenty cm).
(§2) Test chemicals were formulated in a non-phytotoxic solvent mixture which included a surfactant and applied preemergence to the soil surface, postemergence to the plants or as a post directed spray to plants and soil at the base of the target species. Untreated control plants and treated plants were placed in the greenhouse and visually evaluated for injury 13 to 21 days after herbicide application. Plant response ratings, summarized in Table E, are based on a 0 to 100 scale where 0 is no injury and 100 is complete control. A dash (−) response means no test result.

[9] = tested on: goosegrass (Eleusine indica); test: Test E pre-/postemergence/post directed; set-up: key: 0 is no effect; 100 is complete control
From the text: as §1, §2

[10] = tested on: guineagrass (Panicum maximum); test: Test E pre-/postemergence/post directed; set-up: key: 0 is no effect; 100 is complete control
From the text: as §1, §2

[11] = tested on: common ragweed (Ambrosia elatior); test: Test E pre-/postemergence/post directed; set-up: key: 0 is no effect; 100 is complete control; settings: PREEMERGENCE
From the text: as §1, §2

[12] = tested on: tall mallow (Malva sylvestris); test: Test E pre-/postemergence/post directed; set-up: key: 0 is no effect; 100 is complete control; settings: PREEMERGENCE
From the text: as §1, §2

[13] = tested on: common purslane (Portulaca oleracea); test: Test E pre-/postemergence/post directed; set-up: key: 0 is no effect; 100 is complete control
From the text: as §1, §2

[14] = tested on: large crabgrass (Digitaria sanguinalis); test: Test E pre-/postemergence/post directed; set-up: key: 0 is no effect; 100 is complete control; settings: PREEMERGENCE
From the text: as §1, §2

[15] = tested on: dallisgrass (Paspalum dilatatum); test: Test E pre-/postemergence/post directed; set-up: key: 0 is no effect; 100 is complete control
From the text: as §1, §2

[16] = tested on: sourgrass (Trichachne insularis); test: Test E pre-/postemergence/post directed; set-up: key: 0 is no effect; 100 is complete control
From the text: as §1, §2

## Cc1cnc(-c2ccc(C(F)(F)F)cc2)nc1C(Cl)c1cccc(C(F)(F)F)c1 (racemic) [Compound 21]
[1]; Rate 35 g/ha
  Plant response rating, Purple nutsedge: 0
[1]; Rate 70 g/ha
  Plant response rating, Purple nutsedge: 0
[1]; Rate 140 g/ha
  Plant response rating, Purple nutsedge: 0
[2]; Rate 70 g/ha
  Plant response rating, Field bindweed: 40
[2]; Rate 140 g/ha
  Plant response rating, Field bindweed: 40
[3]; Rate 35 g/ha
  Plant response rating, H. beggarticks: 0
[3]; Rate 70 g/ha
  Plant response rating, H. beggarticks: 0
[3]; Rate 140 g/ha
  Plant response rating, H. beggarticks: 40
[4]; Rate 35 g/ha
  Plant response rating, Johnsongrass: 0
[4]; Rate 70 g/ha
  Plant response rating, Johnsongrass: 0
[4]; Rate 140 g/ha
  Plant response rating, Johnsongrass: 5
[5]; Rate 35 g/ha
  Plant response rating, Soybean: 0
[5]; Rate 70 g/ha
  Plant response rating, Soybean: 0
[5]; Rate 140 g/ha
  Plant response rating, Soybean: 5

## CCc1cnc(-c2ccc(C(F)(F)F)cc2)nc1Cc1cccc(C(F)(F)F)c1 [Compound 22]
[6]; Rate 62 g/ha
  Plant response rating, Wild oat: 0
[6]; Rate 125 g/ha
  Plant response rating, Wild oat: 30
[6]; Rate 250 g/ha
  Plant response rating, Wild oat: 30
[7]
  Plant response rating, Downy brome: 10

## COc1cnc(-c2ccc(C(F)(F)F)cc2)nc1Cc1cccc(C(F)(F)F)c1 [Compound 23]
[1]; Rate 35 g/ha
  Plant response rating, Purple nutsedge: 0
[1]; Rate 70 g/ha
  Plant response rating, Purple nutsedge: 0
[1]; Rate 140 g/ha
  Plant response rating, Purple nutsedge: 0
[2]; Rate 35 g/ha
  Plant response rating, Field bindweed: 20
[2]; Rate 70 g/ha
  Plant response rating, Field bindweed: 100
[2]; Rate 140 g/ha
  Plant response rating, Field bindweed: 100
[3]; Rate 35 g/ha
  Plant response rating, H. beggarticks: 50
[3]; Rate 70 g/ha
  Plant response rating, H. beggarticks: 50
[3]; Rate 140 g/ha
  Plant response rating, H. beggarticks: 100
[8]; Rate 32 g/ha
  Plant response rating, Com. groundsel: 100
[8]; Rate 64 g/ha
  Plant response rating, Com. groundsel: 100
[8]; Rate 125 g/ha
  Plant response rating, Com. groundsel: 100
[8]; Rate 250 g/ha
  Plant response rating, Com. groundsel: 100
[9]; POSTEMERGENCE, Rate 250 g/ha
  Plant response rating, Goosegrass: 75
[9]; PREEMERGENCE, Rate 32 g/ha
  Plant response rating, Goosegrass: 98
[9]; PREEMERGENCE, Rate 64 g/ha
  Plant response rating, Goosegrass: 98
[9]; PREEMERGENCE, Rate 125 g/ha
  Plant response rating, Goosegrass: 98
[9]; PREEMERGENCE, Rate 250 g/ha
  Plant response rating, Goosegrass: 100
[10]; POSTEMERGENCE, Rate 250 g/ha
  Plant response rating, Guineagrass: 75
[10]; PREEMERGENCE, Rate 32 g/ha
  Plant response rating, Guineagrass: 80
[10]; PREEMERGENCE, Rate 64 g/ha
  Plant response rating, Guineagrass: 98
[10]; PREEMERGENCE, Rate 125 g/ha
  Plant response rating, Guineagrass: 98
[10]; PREEMERGENCE, Rate 250 g/ha
  Plant response rating, Guineagrass: 100
[11]; Rate 125 g/ha
  Plant response rating, Com. ragweed: 100
[11]; Rate 250 g/ha
  Plant response rating, Com. ragweed: 100
[12]; Rate 32 g/ha
  Plant response rating, Tall Mallow: 80
[12]; Rate 64 g/ha
  Plant response rating, Tall Mallow: 85
[12]; Rate 125 g/ha
  Plant response rating, Tall Mallow: 85
[12]; Rate 250 g/ha
  Plant response rating, Tall Mallow: 90
[13]; POSTEMERGENCE, Rate 250 g/ha
  Plant response rating, Com. purslane: 50
[13]; PREEMERGENCE, Rate 32 g/ha
  Plant response rating, Com. purslane: 100
[13]; PREEMERGENCE, Rate 64 g/ha
  Plant response rating, Com. purslane: 100
[13]; PREEMERGENCE, Rate 125 g/ha
  Plant response rating, Com. purslane: 100
[13]; PREEMERGENCE, Rate 250 g/ha
  Plant response rating, Com. purslane: 100
[14]; Rate 125 g/ha
  Plant response rating, Large crabgrass: 100
[14]; Rate 250 g/ha
  Plant response rating, Large crabgrass: 100
[15]; POSTEMERGENCE, Rate 250 g/ha
  Plant response rating, Dallisgrass: 40
[15]; PREEMERGENCE, Rate 32 g/ha
  Plant response rating, Dallisgrass: 80
[15]; PREEMERGENCE, Rate 64 g/ha
  Plant response rating, Dallisgrass: 85
[15]; PREEMERGENCE, Rate 125 g/ha
  Plant response rating, Dallisgrass: 90
[15]; PREEMERGENCE, Rate 250 g/ha
  Plant response rating, Dallisgrass: 100
[16]; POSTEMERGENCE, Rate 250 g/ha
  Plant response rating, Sourgrass: 30
[16]; PREEMERGENCE, Rate 32 g/ha
  Plant response rating, Sourgrass: 98
[16]; PREEMERGENCE, Rate 64 g/ha
  Plant response rating, Sourgrass: 98
[16]; PREEMERGENCE, Rate 125 g/ha
  Plant response rating, Sourgrass: 100
[16]; PREEMERGENCE, Rate 250 g/ha
  Plant response rating, Sourgrass: 100
[4]; Rate 35 g/ha
  Plant response rating, Johnsongrass: 5
[4]; Rate 70 g/ha
  Plant response rating, Johnsongrass: 20
[4]; Rate 140 g/ha
  Plant response rating, Johnsongrass: 80
[5]; Rate 35 g/ha
  Plant response rating, Soybean: 5
[5]; Rate 70 g/ha
  Plant response rating, Soybean: 5
[5]; Rate 140 g/ha
  Plant response rating, Soybean: 10
